Starred links: 1 amine or outer side, 2 acyl side, 3 side chain; linkers in the order of their positions; H or OH if unused. Groups on a side chain read outwards from the residue. No end group written: not given here. *: point of attachment. C18 diacid = O=C(O)CCCCCCCCCCCCCCCCC(=O)*; γGlu = O=C(O)[C@H](CCC(=O)[*:2])N[*:1]; AEEA = NCCOCCOCC(=O)O
How the values were obtained:
Wistar Kyoto rats = assay: Wistar Kyoto (WKY) rat model of depression: EEG/EMG sleep-wake recording; assay type: in vivo; settings: single injection, 0-3 h post dosing
Procedure: Ketamine (10 mg/kg), a N-methyl-D-aspartate-receptor antagonist, was used as positive control. All rats received all treatments 2 h after light onset in a pseudo randomized crossover fashion with a minimum period of 3 days between treatments. The rats were placed individually in recording boxes, and sleep-wake behaviour was recorded for 24 h. EEG/EMG signals were amplified, analogue filtered (0.5-100 Hz), digitized (500 Hz), and then digitally filtered (EEG: 0.5-100 Hz and EMG: 70-100 Hz). EEG/EMG recordings were semi-automatically scored as wake, non-REM (NREM) sleep, or REM sleep in 10 s epochs using SleepSign. Sleep stages were defined as below: […]

BDNF = assay: In vivo efficacy in wild-type mice, single SC dose: BDNF levels (western blotting); parameters: species or system mouse; settings: single SC dose: LLP11 21 mg/kg, LLP12 26 mg/kg, CLP11 21 mg/kg; 4 and 8 hours
Procedure: 4 and 8 hour timepoints were chosen.
4-hour timepoint were chosen.

Compound	REM & NREM sleep (Wistar Kyoto rats)	time spent awake (wakefulness) (Wistar Kyoto rats)	BDNF levels in vivo (BDNF)
CNC1(c2ccccc2Cl)CCCCC1=O (stereo not drawn) [ketamine]	at the expense of REM & NREM sleep	increased time spent awake	–
LLP12: Linear lipidated peptide K*EQEMTEPVEHEEDV-NH2, * = C18DA-γGlu-OEG-OEG- (K([AEEA-AEEA-γGlu-C18 diacid])EQEMTEPVEHEEDV-NH2; N-terminus assumed; SMILES CSCC[C@H](NC(=O)[C@H](CCC(=O)O)NC(=O)[C@H](CCC(N)=O)NC(=O)[C@H](CCC(=O)O)NC(=O)[C@@H](N)CCCCNC(=O)COCCOCCNC(=O)COCCOCCNC(=O)CC[C@H](NC(=O)CCCCCCCCCCCCCCCCC(=O)O)C(=O)O)C(=O)N[C@H](C(=O)N[C@@H](CCC(=O)O)C(=O)N1CCC[C@H]1C(=O)N[C@H](C(=O)N[C@@H](CCC(=O)O)C(=O)N[C@@H](Cc1c[nH]cn1)C(=O)N[C@@H](CCC(=O)O)C(=O)N[C@@H](CCC(=O)O)C(=O)N[C@@H](CC(=O)O)C(=O)N[C@H](C(N)=O)C(C)C)C(C)C)[C@@H](C)O)	–	–	increase BDNF in vivo

Source: patent US12240921B2, “Peptides” (priority 2022, dated 2025)
